Where a SMILES comes first, the peptide text is derived from it. Bridges are numbered along the chain shown (N, C = ends).
Tests used:
[1] = molecular target: Mouse CNS α-MII Site (putative α6β2* nAChRs); format: binding
[2] = molecular target: T1, Rat α3β2 nAChR (Rattus norvegicus, UniProt P04757+P12390); assay: cell-based; format: cell-based
T1 construct: expressed in transfected cells; host or cells: Xenopus laevis oocytes, cRNA injected

[3] = molecular target: T2, Rat α6/α3β2β3 nAChR (Rattus norvegicus, UniProt P04757+P12390+P43143); assay: cell-based; format: cell-based
T2 construct: amino acids 1 to 237 of the rat α6 subunit protein; amino acids 233 to 499 of the rat α3 subunit protein; expressed in transfected cells; host or cells: Xenopus laevis oocytes, cRNA injected (pT7TS/rα6α3 for the chimera)

[4] = molecular target: T3, α4β2 nAChR (Rattus norvegicus, UniProt P09483+P12390); format: cell-based
T3 construct: expressed in transfected cells; host or cells: Xenopus laevis oocytes, cRNA injected
T3 sequence (P09483 31-630 limits assumed): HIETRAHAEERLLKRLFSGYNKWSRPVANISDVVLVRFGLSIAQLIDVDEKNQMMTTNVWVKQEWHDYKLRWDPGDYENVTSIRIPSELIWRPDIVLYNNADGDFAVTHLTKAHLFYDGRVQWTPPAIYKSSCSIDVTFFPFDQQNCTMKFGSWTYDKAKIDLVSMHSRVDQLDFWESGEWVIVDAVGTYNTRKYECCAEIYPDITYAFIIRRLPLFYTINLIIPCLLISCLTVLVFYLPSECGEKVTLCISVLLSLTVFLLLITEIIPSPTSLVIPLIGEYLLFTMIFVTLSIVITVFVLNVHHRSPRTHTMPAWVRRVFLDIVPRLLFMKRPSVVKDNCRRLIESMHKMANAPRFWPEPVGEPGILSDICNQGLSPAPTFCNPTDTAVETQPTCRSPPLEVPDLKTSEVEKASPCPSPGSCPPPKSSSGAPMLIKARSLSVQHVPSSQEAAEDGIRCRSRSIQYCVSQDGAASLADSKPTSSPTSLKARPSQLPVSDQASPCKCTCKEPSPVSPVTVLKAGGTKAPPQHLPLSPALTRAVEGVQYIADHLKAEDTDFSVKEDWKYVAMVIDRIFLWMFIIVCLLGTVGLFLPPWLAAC
T3 sequence (P12390 25-500 limits assumed): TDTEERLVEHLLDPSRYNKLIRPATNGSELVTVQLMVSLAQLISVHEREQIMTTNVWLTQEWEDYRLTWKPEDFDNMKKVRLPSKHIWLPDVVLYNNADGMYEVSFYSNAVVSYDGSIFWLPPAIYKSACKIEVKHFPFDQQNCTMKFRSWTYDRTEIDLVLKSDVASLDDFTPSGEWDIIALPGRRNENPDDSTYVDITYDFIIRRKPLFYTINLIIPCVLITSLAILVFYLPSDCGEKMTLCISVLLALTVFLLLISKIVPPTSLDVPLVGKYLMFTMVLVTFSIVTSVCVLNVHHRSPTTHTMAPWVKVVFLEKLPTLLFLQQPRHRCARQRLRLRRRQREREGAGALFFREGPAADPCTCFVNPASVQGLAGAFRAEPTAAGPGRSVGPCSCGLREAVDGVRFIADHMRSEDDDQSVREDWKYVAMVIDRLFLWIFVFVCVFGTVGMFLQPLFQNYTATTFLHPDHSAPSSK

T1 sequence (P04757 26-499 limits assumed): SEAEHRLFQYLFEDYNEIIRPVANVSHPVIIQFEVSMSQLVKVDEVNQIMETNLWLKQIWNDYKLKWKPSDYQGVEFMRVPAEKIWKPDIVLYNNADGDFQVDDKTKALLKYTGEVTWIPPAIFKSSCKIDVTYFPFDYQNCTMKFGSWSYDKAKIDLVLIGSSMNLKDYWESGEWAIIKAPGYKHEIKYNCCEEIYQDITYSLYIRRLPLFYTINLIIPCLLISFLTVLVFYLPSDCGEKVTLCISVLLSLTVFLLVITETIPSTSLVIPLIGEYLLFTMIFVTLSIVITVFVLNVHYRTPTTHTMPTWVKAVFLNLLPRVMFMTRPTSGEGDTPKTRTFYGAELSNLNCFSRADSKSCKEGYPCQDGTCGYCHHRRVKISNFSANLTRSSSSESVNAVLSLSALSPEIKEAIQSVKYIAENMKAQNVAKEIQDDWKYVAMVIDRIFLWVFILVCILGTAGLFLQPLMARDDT
T1 sequence (P12390 25-500 limits assumed): as the sequence (P12390 25-500 limits assumed) above
T2 sequence (P43143 31-237 limits assumed): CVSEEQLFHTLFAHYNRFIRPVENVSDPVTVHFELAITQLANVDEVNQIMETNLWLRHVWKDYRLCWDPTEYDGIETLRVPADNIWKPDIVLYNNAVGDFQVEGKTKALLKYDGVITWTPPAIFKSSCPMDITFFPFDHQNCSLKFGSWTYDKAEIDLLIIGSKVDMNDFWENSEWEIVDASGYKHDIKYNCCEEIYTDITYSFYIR
T2 sequence (P04757 233-499 limits assumed): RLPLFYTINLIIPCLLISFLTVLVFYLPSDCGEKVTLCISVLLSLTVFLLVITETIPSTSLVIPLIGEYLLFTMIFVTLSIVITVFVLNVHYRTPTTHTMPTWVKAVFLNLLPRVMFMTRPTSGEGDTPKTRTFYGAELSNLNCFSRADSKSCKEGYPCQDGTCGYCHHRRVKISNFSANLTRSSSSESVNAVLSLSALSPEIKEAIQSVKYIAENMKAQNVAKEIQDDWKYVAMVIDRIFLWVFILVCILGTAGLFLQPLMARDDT
T2 sequence (P12390 25-500 limits assumed): as the sequence (P12390 25-500 limits assumed) above

Compound	Ki [1] [nM]	Hill slope, α3β2 [2]	IC50 [3] [nM]	IC50 [2] [nM]	Ratio IC50 α3β2/IC50 α6/α3β2β3 [2]	Hill slope, α6/α3β2β3 [3]	ACh response, percentage of control, Rα4β2 [4]
CC(C)C[C@@H]1NC(=O)[C@H](CC(N)=O)NC(=O)[C@H](CO)NC(=O)[C@H](Cc2c[nH]cn2)NC(=O)[C@H](CCC(=O)O)NC(=O)[C@H](CC(C)C)NC(=O)[C@H](Cc2c[nH]cn2)NC(=O)[C@@H]2CSSC[C@H](NC(=O)CN)C(=O)N[C@@H](CSSC[C@@H](C(N)=O)NC1=O)C(=O)N[C@@H](CO)C(=O)N[C@@H](CC(N)=O)C(=O)N1CCC[C@H]1C(=O)N[C@@H](C(C)C)C(=O)N2 [MII, reference compound]	0.22	0.75±0.13					
CC(C)C[C@@H]1NC(=O)[C@H](Cc2c[nH]cn2)NC(=O)[C@@H]2CSSC[C@H](NC(=O)CN)C(=O)N[C@@H](CSSC[C@@H](C(N)=O)NC(=O)[C@H](C)NC(=O)[C@H](CC(N)=O)NC(=O)[C@H](CO)NC(=O)[C@H](Cc3c[nH]cn3)NC(=O)[C@H](C)NC1=O)C(=O)N[C@@H](CO)C(=O)N[C@@H](CC(N)=O)C(=O)N1CCC[C@H]1C(=O)N[C@@H](C(C)C)C(=O)N2 [MII[E11A; L15A]] (H-GCCSNPVCHLAHSNAC-NH2; disulfide 2-8, 3-16)			0.415	50.1	121		
CC(C)C[C@@H]1NC(=O)[C@H](C)NC(=O)[C@@H]2CSSC[C@H](NC(=O)CN)C(=O)N[C@@H](CSSC[C@@H](C(N)=O)NC(=O)[C@H](CC(C)C)NC(=O)[C@H](CC(N)=O)NC(=O)[C@H](CO)NC(=O)[C@H](Cc3c[nH]cn3)NC(=O)[C@H](CCC(=O)O)NC1=O)C(=O)N[C@@H](CO)C(=O)N[C@@H](CC(N)=O)C(=O)N1CCC[C@H]1C(=O)N[C@@H](C(C)C)C(=O)N2 [MII[H9A]] (H-GCCSNPVCALEHSNLC-NH2; disulfide 2-8, 3-16)	1.1	0.83±0.08	0.79	59	74.7	0.73±0.08	105.8±2.4 % of control
CC(C)C[C@@H]1NC(=O)[C@H](CC(N)=O)NC(=O)[C@H](CO)NC(=O)[C@H](C)NC(=O)[C@H](CCC(=O)O)NC(=O)[C@H](CC(C)C)NC(=O)[C@H](Cc2c[nH]cn2)NC(=O)[C@@H]2CSSC[C@H](NC(=O)CN)C(=O)N[C@@H](CSSC[C@@H](C(N)=O)NC1=O)C(=O)N[C@@H](CO)C(=O)N[C@@H](CC(N)=O)C(=O)N1CCC[C@H]1C(=O)N[C@@H](C(C)C)C(=O)N2 [MII[H12A]] (H-GCCSNPVCHLEASNLC-NH2; disulfide 2-8, 3-16)			604	4660	7.72		
CC(C)[C@@H]1NC(=O)[C@@H]2CCCN2C(=O)[C@H](CC(N)=O)NC(=O)[C@H](CO)NC(=O)[C@@H]2CSSC[C@@H](C(N)=O)NC(=O)[C@H](C)NC(=O)[C@H](CC(N)=O)NC(=O)[C@H](CO)NC(=O)[C@H](Cc3c[nH]cn3)NC(=O)[C@H](CCC(=O)O)NC(=O)[C@H](C)NC(=O)[C@H](Cc3c[nH]cn3)NC(=O)[C@H](CSSC[C@H](NC(=O)CN)C(=O)N2)NC1=O [MII[L10A; L15A]] (H-GCCSNPVCHAEHSNAC-NH2; disulfide 2-8, 3-16)			1.8	17.2	9.56		
CC(C)C[C@@H]1NC(=O)[C@H](CC(N)=O)NC(=O)[C@H](CO)NC(=O)[C@H](Cc2c[nH]cn2)NC(=O)[C@H](CCC(=O)O)NC(=O)[C@H](C)NC(=O)[C@H](Cc2c[nH]cn2)NC(=O)[C@@H]2CSSC[C@H](NC(=O)CN)C(=O)N[C@@H](CSSC[C@@H](C(N)=O)NC1=O)C(=O)N[C@@H](CO)C(=O)N[C@@H](CC(N)=O)C(=O)N1CCC[C@H]1C(=O)N[C@@H](C(C)C)C(=O)N2 [MII[L10A]] (H-GCCSNPVCHAEHSNLC-NH2; disulfide 2-8, 3-16)			0.482	1.47	3.05		
CC(C)C[C@@H]1NC(=O)[C@H](Cc2c[nH]cn2)NC(=O)[C@@H]2CSSC[C@H](NC(=O)CN)C(=O)N[C@@H](CSSC[C@@H](C(N)=O)NC(=O)[C@H](C)NC(=O)[C@H](CC(N)=O)NC(=O)[C@H](CO)NC(=O)[C@H](Cc3c[nH]cn3)NC(=O)[C@H](CCC(=O)O)NC1=O)C(=O)N[C@@H](CO)C(=O)N[C@@H](CC(N)=O)C(=O)N1CCC[C@H]1C(=O)N[C@@H](C(C)C)C(=O)N2 [MII[L15A]] (H-GCCSNPVCHLEHSNAC-NH2; disulfide 2-8, 3-16)	0.3	0.58±0.08	0.917	34.1	37.2	0.75±0.08	102.3±5.3 % of control
CC(C)C[C@@H]1NC(=O)[C@H](CC(N)=O)NC(=O)[C@H](CO)NC(=O)[C@H](Cc2c[nH]cn2)NC(=O)[C@H](CCC(=O)O)NC(=O)[C@H](CC(C)C)NC(=O)[C@H](Cc2c[nH]cn2)NC(=O)[C@@H]2CSSC[C@H](NC(=O)CN)C(=O)N[C@@H](CSSC[C@@H](C(N)=O)NC1=O)C(=O)N[C@@H](CO)C(=O)N[C@@H](C)C(=O)N1CCC[C@H]1C(=O)N[C@@H](C(C)C)C(=O)N2 [MII[N5A]] (H-GCCSAPVCHLEHSNLC-NH2; disulfide 2-8, 3-16)			793	> 10000	>12.6		
CC(C)C[C@@H]1NC(=O)[C@H](C)NC(=O)[C@H](CO)NC(=O)[C@H](Cc2c[nH]cn2)NC(=O)[C@H](CCC(=O)O)NC(=O)[C@H](CC(C)C)NC(=O)[C@H](Cc2c[nH]cn2)NC(=O)[C@@H]2CSSC[C@H](NC(=O)CN)C(=O)N[C@@H](CSSC[C@@H](C(N)=O)NC1=O)C(=O)N[C@@H](CO)C(=O)N[C@@H](CC(N)=O)C(=O)N1CCC[C@H]1C(=O)N[C@@H](C(C)C)C(=O)N2 [MII[N14A]] (H-GCCSNPVCHLEHSALC-NH2; disulfide 2-8, 3-16)			1.06	25.7	24.2		
CC(C)C[C@@H]1NC(=O)[C@H](CC(N)=O)NC(=O)[C@H](CO)NC(=O)[C@H](Cc2c[nH]cn2)NC(=O)[C@H](CCC(=O)O)NC(=O)[C@H](CC(C)C)NC(=O)[C@H](Cc2c[nH]cn2)NC(=O)[C@@H]2CSSC[C@H](NC(=O)CN)C(=O)N[C@@H](CSSC[C@@H](C(N)=O)NC1=O)C(=O)N[C@@H](CO)C(=O)N[C@@H](CC(N)=O)C(=O)N[C@@H](C)C(=O)N[C@@H](C(C)C)C(=O)N2 [MII[P6A]] (H-GCCSNAVCHLEHSNLC-NH2; disulfide 2-8, 3-16)			253	4420	17.5		
CC(C)C[C@@H]1NC(=O)[C@H](C)NC(=O)[C@@H]2CSSC[C@H](NC(=O)CN)C(=O)N[C@@H](CSSC[C@@H](C(N)=O)NC(=O)[C@H](CC(C)C)NC(=O)[C@H](CC(N)=O)NC(=O)[C@H](CO)NC(=O)[C@H](Cc3c[nH]cn3)NC(=O)[C@H](CCC(=O)O)NC1=O)C(=O)N[C@@H](C)C(=O)N[C@@H](CC(N)=O)C(=O)N1CCC[C@H]1C(=O)N[C@@H](C(C)C)C(=O)N2 [MII[S4A; H9A]] (H-GCCANPVCALEHSNLC-NH2; disulfide 2-8, 3-16)			1.97	207	105		
CC(C)C[C@@H]1NC(=O)[C@H](CC(N)=O)NC(=O)[C@H](CO)NC(=O)[C@H](Cc2c[nH]cn2)NC(=O)[C@H](CCC(=O)O)NC(=O)[C@H](CC(C)C)NC(=O)[C@H](Cc2c[nH]cn2)NC(=O)[C@@H]2CSSC[C@H](NC(=O)CN)C(=O)N[C@@H](CSSC[C@@H](C(N)=O)NC1=O)C(=O)N[C@@H](C)C(=O)N[C@@H](CC(N)=O)C(=O)N1CCC[C@H]1C(=O)N[C@@H](C(C)C)C(=O)N2 [MII[S4A]] (H-GCCANPVCHLEHSNLC-NH2; disulfide 2-8, 3-16)			0.733	15.8	21.56		
CC(C)C[C@@H]1NC(=O)[C@H](CC(N)=O)NC(=O)[C@H](C)NC(=O)[C@H](Cc2c[nH]cn2)NC(=O)[C@H](CCC(=O)O)NC(=O)[C@H](CC(C)C)NC(=O)[C@H](Cc2c[nH]cn2)NC(=O)[C@@H]2CSSC[C@H](NC(=O)CN)C(=O)N[C@@H](CSSC[C@@H](C(N)=O)NC1=O)C(=O)N[C@@H](CO)C(=O)N[C@@H](CC(N)=O)C(=O)N1CCC[C@H]1C(=O)N[C@@H](C(C)C)C(=O)N2 [MII[S13A]] (H-GCCSNPVCHLEHANLC-NH2; disulfide 2-8, 3-16)			0.659	2.54	3.85		
CC(C)C[C@@H]1NC(=O)[C@H](CC(N)=O)NC(=O)[C@H](CO)NC(=O)[C@H](Cc2c[nH]cn2)NC(=O)[C@H](CCC(=O)O)NC(=O)[C@H](CC(C)C)NC(=O)[C@H](Cc2c[nH]cn2)NC(=O)[C@@H]2CSSC[C@H](NC(=O)CN)C(=O)N[C@@H](CSSC[C@@H](C(N)=O)NC1=O)C(=O)N[C@@H](CO)C(=O)N[C@@H](CC(N)=O)C(=O)N1CCC[C@H]1C(=O)N[C@@H](C)C(=O)N2 [MII[V7A]] (H-GCCSNPACHLEHSNLC-NH2; disulfide 2-8, 3-16)			10.6	4.46	0.421		
